From patent US8357694B2, “Substituted 5,6-dihydro-6-phenylbenzo[F]isoquinolin-2-amine compounds” (ArQule, Inc., priority 2008, dated 2013)
Where a name gives a salt, the structure may show the parent alone.

First: COCCNCCc1ccc(Nc2ncc3c(n2)-c2ccccc2[C@H](c2ccc(F)c(F)c2)C3)cc1 (as salt: hydrochloride) [Example 86, (S)-6-(3,4-difluorophenyl)-N-(4-(2-(2-methoxyethylamino)ethyl)phenyl)-5,6-dihydrobenzo[h]quinazolin-2-amine hydrochloride]
Second: CN(C)CCc1ccc(Nc2ncc3c(n2)-c2ccccc2[C@H](c2ccc(F)c(F)c2)C3)cc1 (as salt: hydrochloride) [Example 87, (S)-6-(3,4-difluorophenyl)-N-(4-(2-(dimethylamino)ethyl)phenyl)-5,6-dihydrobenzo[h]quinazolin-2-amine hydrochloride]
The melting point of the first is lower: 85 to 87 °C for the first, 165 to 167 °C for the second.

First: COCCNCCc1ccc(Nc2ncc3c(n2)-c2ccccc2[C@H](c2ccc(F)c(F)c2)C3)cc1 (as salt: HCl) [Example 82, (S)-6-(3,4-difluorophenyl)-N-(4-(2-(2-methoxyethylamino)ethyl)phenyl)-5,6-dihydrobenzo[h]quinazolin-2-amine]
Second: COCCNCCc1ccc(Nc2ncc3c(n2)-c2ccccc2C(c2ccccc2C(F)(F)F)C3)cc1 (stereo not shown) [Example 70, N-(4-(2-(2-methoxyethylamino)ethyl)phenyl)-6-(2-(trifluoromethyl)phenyl)-5,6-dihydrobenzo[h]quinazolin-2-amine]
The melting point of the first is higher: 221 to 225 °C for the first, 61 to 62 °C for the second.

First: CN(C)CCCNc1ncc2c(n1)-c1ccccc1C(c1ccc(Cl)c(Cl)c1)C2 (stereo not shown) [Example 11, N^1-(6-(3,4-dichlorophenyl)-5,6-dihydrobenzo[h]quinazolin-2-yl)-N^3,N^3-dimethylpropane-1,3-diamine]
Second: CC(C)(C)OC(=O)N1CCC[C@@H](Nc2ncc3c(n2)-c2ccccc2[C@H](c2ccc(Cl)c(Cl)c2)C3)C1
The melting point of the first is higher: 110 to 114 °C for the first, 85 to 87 °C for the second.

First: CN(C)CCN(CCc1ccc(Nc2ncc3c(n2)-c2ccccc2C(c2cccc(Br)c2)C3)cc1)Cc1ccccc1 (stereo not shown) [Example 38, N^1-benzyl-N-1-(4-(6-(3-bromophenyl)-5,6-dihydrobenzo[h]quinazolin-2-ylamino)phenethyl)-N^2,N^2-dimethylethane-1,2-diamine]
Second: CN(CCc1ccccc1)CCc1ccc(Nc2ncc3c(n2)-c2ccccc2[C@H](c2ccc(Cl)c(Cl)c2)C3)cc1 (as salt: hydrochloride) [Example 104, (S)-6-(3,4-dichlorophenyl)-N-(4-(2-(methyl(phenethyl)amino)ethyl)phenyl)-5,6-dihydrobenzo[h]quinazolin-2-amine hydrochloride salt]
The melting point of the first is lower: 68 to 70 °C for the first, 170 to 175 °C for the second.

Compared with Fc1ccc(C2Cc3cnc(Nc4ccc(CCN5CCCCC5)cc4)nc3-c3ccccc32)cc1F (stereo not shown) (as salt: hydrochloride) [Example 57, 6-(3,4-difluorophenyl)-N-(4-(2-(piperidin-1-yl)ethyl)phenyl)-5,6-dihydrobenzo[h]quinazolin-2-amine], Fc1ccc([C@H]2Cc3cnc(Nc4ccc(CCN5CCCCC5)cc4)nc3-c3ccccc32)cc1F (as salt: hydrochloride) [Example 91, (R)-6-(3,4-difluorophenyl)-N-(4-(2-(piperidin-1-yl)ethyl)phenyl)-5,6-dihydrobenzo[h]quinazolin-2-amine hydrochloride] is lower in melting point: 214 to 218 °C for the first, 165 to 167 °C for the second.

First: Fc1ccccc1[C@@H]1Cc2cnc(Nc3ccc(CCN4CCCCC4)cc3)nc2-c2ccccc21 (as salt: hydrochloride) [Example 67, (R)-6-(2-fluorophenyl)-N-(4-(2-(piperidin-1-yl)ethyl)phenyl)-5,6-dihydrobenzo[h]quinazolin-2-amine hydrochloride]
Second: Clc1ccc([C@@H]2Cc3cnc(Nc4ccc(CCN5CCCCC5)cc4)nc3-c3ccccc32)cc1 (as salt: hydrochloride)
The melting point of the first is lower: 170 to 174 °C for the first, 261 to 263 °C for the second.

First: Fc1ccccc1[C@@H]1Cc2cnc(Nc3cccc(CCN4CCNCC4)c3)nc2-c2ccccc21 (as salt: hydrochloride) [Example 160, (R)-6-(2-fluorophenyl)-N-(3-(2-(piperazin-1-yl)ethyl)phenyl)-5,6-dihydrobenzo[h]quinazolin-2-amine hydrochloride]
Second: CN1CCN(CCc2cc(Nc3ncc4c(n3)-c3ccccc3[C@H](c3ccccc3F)C4)ccc2F)CC1 (as salt: hydrochloride) [Example 174, (R)—N-(4-fluoro-3-(2-(4-methylpiperazin-1-yl)ethyl)phenyl)-6-(2-fluorophenyl)-5,6-dihydrobenzo[h]quinazolin-2-amine hydrochloride salt]
The melting point of the first is lower: 193 to 199 °C for the first, 225 to 229 °C for the second.

First: OCCc1cc(Nc2ncc3c(n2)-c2ccccc2[C@H](c2ccccc2F)C3)ccc1F [Example 169, (R)-2-(2-fluoro-5-(6-(2-fluorophenyl)-5,6-dihydrobenzo[h]quinazolin-2-ylamino)phenyl)ethano]
Second: CCCCN(C)CCc1cccc(Nc2ncc3c(n2)-c2ccccc2[C@H](c2ccccc2F)C3)c1 (as salt: hydrochloride)
The melting point of the first is lower: 140 to 141 °C for the first, 163 to 167 °C for the second.

First: OCCc1ccc(Nc2ncc3c(n2)-c2ccccc2C(c2ccc(Cl)cc2)C3)cc1 (stereo not shown) [Example 22, 2-(4-(6-(4-chlorophenyl)-5,6-dihydrobenzo[h]quinazolin-2-ylamino)phenyl)ethanol]
Second: CCCCN(C)CCc1ccc(Nc2ncc3c(n2)-c2ccccc2C(c2ccc(Cl)cc2)C3)cc1 (stereo not shown) (as salt: hydrochloride)
The melting point of the first is higher: 163 to 164 °C for the first, 145 to 150 °C for the second.

First: COCCN(CCOC)CCc1ccc(Nc2ncc3c(n2)-c2ccccc2C(c2cccc(Br)c2)C3)cc1 (stereo not shown) [Example 42, N-(4-(2-(bis(2-methoxyethyl)amino)ethyl)phenyl)-6-(3-bromophenyl)-5,6-dihydrobenzo[h]quinazolin-2-amine]
Second: Brc1cccc(C2Cc3cnc(Nc4ccc(CCN5CCOCC5)cc4)nc3-c3ccccc32)c1 (stereo not shown) [Example 31, 6-(3-bromophenyl)-N-(4-(2-morpholinoethyl)phenyl)-5,6-dihydrobenzo[h]quinazolin-2-amine]
The melting point of the first is lower: 58 to 60 °C for the first, 86 to 88 °C for the second.

First: CN1CCN(CCc2ccc(Nc3ncc4c(n3)-c3ccccc3C(c3ccccc3C(F)(F)F)C4)cc2)CC1 (stereo not shown) [Example 71, N-(4-(2-(4-methylpiperazin-1-yl)ethyl)phenyl)-6-(2-(trifluoromethyl)phenyl)-5,6 dihydrobenzo[h]quinazolin-2-amine]
Second: Clc1ccc(C2Cc3cnc(Nc4ccc(CCN5CCCCC5)cc4)nc3-c3ccccc32)cc1Cl (stereo not shown)
The melting point of the first is lower: 157 to 158 °C for the first, 181 to 183 °C for the second.

CCCCN(C)CCc1ccc(Nc2ncc3c(n2)-c2ccccc2[C@H](c2ccc(F)cc2)C3)cc1 [Example 99, (S)—N-(4-(2-(butyl(methyl)amino)ethyl)phenyl)-6-(4-fluorophenyl)-5,6-dihydrobenzo[h]quinazolin-2-amine] and Clc1ccc([C@@H]2Cc3cnc(Nc4cccc(CCN5CCCCC5)c4)nc3-c3ccccc32)cc1Cl (as salt: hydrochloride) [Example 167, (S)-6-(3,4-dichlorophenyl)-N-(3-(2-(piperidin-1-yl)ethyl)phenyl)-5,6-dihydrobenzo[h]quinazolin-2-amine hydrochloride] cannot be ordered by melting point: 164 to 166 °C for the first, 165 to 169 °C for the second.

Work on COCCN1CCN(CCc2cccc(Nc3ncc4c(n3)-c3ccccc3[C@H](c3ccc(Cl)c(Cl)c3)C4)c2)CC1 (as salt: hydrochloride) yielded a melting point of 220 to 225 °C.
